Measured values taken from patent US10738028B2, “Spiro three-membered ring, spiro five-membered ring peptide deformylase inhibitor and use thereof in antibacteria and anti-tumor” (priority 2016, dated 2020).

Tests used:
Type in all cases: cell-based
[1] = system: HCT-116 colorectal cancer cell line; experiment: CCK-8 proliferation inhibition; conditions: Homo sapiens, HCT-116, 72 h, concentration of 30 μM; 72 hours; CCK-8; read-out: HCT116 inhibition rate/%
Outline: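 Growth inhibition is read by CCK-8 (1:10 dilution) after 72 h of compound exposure. HCT-116 cells grow in McCoy's 5A containing 10% newborn bovine serum at 2000 cells/well, with 1‰ DMSO as vehicle control.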

[2] = system: Streptococcus pneoumoniae (SPN); experiment: MIC, two-fold agar dilution (CLSI), clinical isolates
Outline: (§1)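 Samples are serially diluted two-fold in agar following CLSI guidance. Plates are then inoculated with the tested strains. The lowest inhibiting concentration is recorded as MIC.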

[3] = system: Escherichia coli (including ESBLs, non-ESBLs); experiment: as above; conditions: for Anti-bacterial activity (MIC), strain ECO+ 15-1: clinical isolate ECO+ 15-1; for Anti-bacterial activity (MIC), strain ECO+ 15-2: clinical isolate ECO+ 15-2; for Anti-bacterial activity (MIC), strain ECO+ 15-3: clinical isolate ECO+ 15-3; for Anti-bacterial activity (MIC), strain ECO+ 15-4: clinical isolate ECO+ 15-4; for Anti-bacterial activity (MIC), strain ECO− 15-1: clinical isolate ECO− 15-1; for Anti-bacterial activity (MIC), strain ECO− 15-2: clinical isolate ECO− 15-2; for Anti-bacterial activity (MIC), strain ECO− 15-3: clinical isolate ECO− 15-3; for Anti-bacterial activity (MIC), strain ECO− 15-4: clinical isolate ECO− 15-4
Outline: as §1

[4] = system: methicillin-resistant Staphylococcus aureus (MRSA); experiment: as above; conditions: for Anti-bacterial activity (MIC), strain MRSA 15-1: clinical isolate MRSA 15-1; for Anti-bacterial activity (MIC), strain MRSA 15-2: clinical isolate MRSA 15-2; for Anti-bacterial activity (MIC), strain MRSA 15-3: clinical isolate MRSA 15-3; for Anti-bacterial activity (MIC), strain MRSA 15-4: clinical isolate MRSA 15-4
Outline: as §1

[5] = system: Moraxella catarrhalis (BCA); experiment: as above
Outline: as §1

[6] = system: Enterococcus faecium (EFM); experiment: as above
Outline: as §1

[7] = system: methicillin-resistant Staphylococcus epidermidis (MRSE); experiment: as above; conditions: for Anti-bacterial activity (MIC), strain MRSE 15-1: clinical isolate MRSE 15-1; for Anti-bacterial activity (MIC), strain MRSE 15-2: clinical isolate MRSE 15-2; for Anti-bacterial activity (MIC), strain MRSE 15-3: clinical isolate MRSE 15-3; for Anti-bacterial activity (MIC), strain MRSE 15-7: clinical isolate MRSE 15-7
Outline: as §1

[8] = system: Enterococcus faecalis (EFA); experiment: as above
Outline: as §1

[9] = system: methicillin-sensitive Staphylococcus epidermidis (MSSE); experiment: as above; conditions: for Anti-bacterial activity (MIC), strain MSSE 15-3: clinical isolate MSSE 15-3; for Anti-bacterial activity (MIC), strain MSSE 15-4: clinical isolate MSSE 15-4; for Anti-bacterial activity (MIC), strain MSSE 15-5: clinical isolate MSSE 15-5; for Anti-bacterial activity (MIC), strain MSSE 15-6: clinical isolate MSSE 15-6
Outline: as §1

[10] = system: methicillin-sensitive Staphylococcus aureus (MSSA); experiment: as above; conditions: for Anti-bacterial activity (MIC), strain MSSA 15-3: clinical isolate MSSA 15-3; for Anti-bacterial activity (MIC), strain MSSA 15-4: clinical isolate MSSA 15-4; for Anti-bacterial activity (MIC), strain MSSA 15-5: clinical isolate MSSA 15-5; for Anti-bacterial activity (MIC), strain MSSA 15-6: clinical isolate MSSA 15-6
Outline: as §1

Structure (SMILES): CCCC[C@H](CC(=O)NO)C(=O)N1CC2(CC2)C[C@H]1c1nc2ccccc2n1CCN(C)C [Example 60, (R)-3-((S)-6-(1-(2-(dimethylamino)ethyl)-1H-benzimidazol-2-yl)-5-azaspiro[2.4]heptane-5-carbonyl)-N-hydroxyheptanamide]
- inhibition at 30 µM [1]: -2%
- Anti-bacterial activity (MIC), strain SPN 16-2 ([2]; clinical isolate SPN 16-2): 1 µg/mL
- Anti-bacterial activity (MIC), strain SPN 16-4 ([2]; clinical isolate SPN 16-4): 1 µg/mL
- Anti-bacterial activity (MIC), strain ECO+ 15-1 [3]: > 32 µg/mL
- Anti-bacterial activity (MIC), strain ECO+ 15-2 [3]: > 32 µg/mL
- Anti-bacterial activity (MIC), strain ECO+ 15-3 [3]: > 32 µg/mL
- Anti-bacterial activity (MIC), strain ECO+ 15-4 [3]: > 32 µg/mL
- Anti-bacterial activity (MIC), strain ECO− 15-1 [3]: > 32 µg/mL
- Anti-bacterial activity (MIC), strain ECO− 15-2 [3]: > 32 µg/mL
- Anti-bacterial activity (MIC), strain ECO− 15-3 [3]: > 32 µg/mL
- Anti-bacterial activity (MIC), strain ECO− 15-4 [3]: > 32 µg/mL
- Anti-bacterial activity (MIC), strain MRSA 15-1 [4]: > 32 µg/mL
- Anti-bacterial activity (MIC), strain MRSA 15-2 [4]: > 32 µg/mL
- Anti-bacterial activity (MIC), strain MRSA 15-3 [4]: > 32 µg/mL
- Anti-bacterial activity (MIC), strain MRSA 15-4 [4]: > 32 µg/mL
- Anti-bacterial activity (MIC), strain BCA 14-1 ([5]; clinical isolate BCA 14-1): > 32 µg/mL
- Anti-bacterial activity (MIC), strain BCA 14-4 ([5]; clinical isolate BCA 14-4): > 32 µg/mL
- Anti-bacterial activity (MIC), strain BCA 14-5 ([5]; clinical isolate BCA 14-5): > 32 µg/mL
- Anti-bacterial activity (MIC), strain BCA 14-6 ([5]; clinical isolate BCA 14-6): > 32 µg/mL
- Anti-bacterial activity (MIC), strain BCA 14-7 ([5]; clinical isolate BCA 14-7): > 32 µg/mL
- Anti-bacterial activity (MIC), strain BCA 14-8 ([5]; clinical isolate BCA 14-8): > 32 µg/mL
- Anti-bacterial activity (MIC), strain BCA 14-10 ([5]; clinical isolate BCA 14-10): > 32 µg/mL
- Anti-bacterial activity (MIC), strain EFM 15-1 ([6]; clinical isolate EFM 15-1): > 32 µg/mL
- Anti-bacterial activity (MIC), strain EFM 15-2 ([6]; clinical isolate EFM 15-2): > 32 µg/mL
- Anti-bacterial activity (MIC), strain EFM 15-3 ([6]; clinical isolate EFM 15-3): > 32 µg/mL
- Anti-bacterial activity (MIC), strain EFM 15-4 ([6]; clinical isolate EFM 15-4): > 32 µg/mL
- Anti-bacterial activity (MIC), strain EFM 15-5 ([6]; clinical isolate EFM 15-5): 8 µg/mL
- Anti-bacterial activity (MIC), strain EFM 15-6 ([6]; clinical isolate EFM 15-6): 32 µg/mL
- Anti-bacterial activity (MIC), strain MRSE 15-1 [7]: > 32 µg/mL
- Anti-bacterial activity (MIC), strain MRSE 15-2 [7]: > 32 µg/mL
- Anti-bacterial activity (MIC), strain MRSE 15-3 [7]: > 32 µg/mL
- Anti-bacterial activity (MIC), strain MRSE 15-7 [7]: > 32 µg/mL
- Anti-bacterial activity (MIC), strain EFA 15-1 ([8]; clinical isolate EFA 15-1): > 32 µg/mL
- Anti-bacterial activity (MIC), strain EFA 15-2 ([8]; clinical isolate EFA 15-2): > 32 µg/mL
- Anti-bacterial activity (MIC), strain EFA 15-3 ([8]; clinical isolate EFA 15-3): > 32 µg/mL
- Anti-bacterial activity (MIC), strain EFA 15-4 ([8]; clinical isolate EFA 15-4): > 32 µg/mL
- Anti-bacterial activity (MIC), strain EFA 15-5 ([8]; clinical isolate EFA 15-5): > 32 µg/mL
- Anti-bacterial activity (MIC), strain EFA 15-6 ([8]; clinical isolate EFA 15-6): > 32 µg/mL
- Anti-bacterial activity (MIC), strain EFA 15-9 ([8]; clinical isolate EFA 15-9): > 32 µg/mL
- Anti-bacterial activity (MIC), strain MSSE 15-3 [9]: > 32 µg/mL
- Anti-bacterial activity (MIC), strain MSSE 15-4 [9]: > 32 µg/mL
- Anti-bacterial activity (MIC), strain MSSE 15-5 [9]: > 32 µg/mL
- Anti-bacterial activity (MIC), strain MSSE 15-6 [9]: > 32 µg/mL
- Anti-bacterial activity (MIC), strain MSSA 15-3 [10]: > 32 µg/mL
- Anti-bacterial activity (MIC), strain MSSA 15-4 [10]: > 32 µg/mL
- Anti-bacterial activity (MIC), strain MSSA 15-5 [10]: > 32 µg/mL
- Anti-bacterial activity (MIC), strain MSSA 15-6 [10]: > 32 µg/mL

Structure (SMILES): O=C(C[C@@H](CC1CCCC1)C(=O)N1CC2(CC2)C[C@H]1C(=O)NC1CC1)NO [Example 68]
- inhibition at 30 µM [1]: 21%
- Anti-bacterial activity (MIC) ([2]; strain SPN 16-2): 2 µg/mL
- Anti-bacterial activity (MIC) ([2]; strain SPN 16-4): 1 µg/mL
- Anti-bacterial activity (MIC), strain ECO+ 15-1 [3]: > 32 µg/mL
- Anti-bacterial activity (MIC), strain ECO+ 15-2 [3]: > 32 µg/mL
- Anti-bacterial activity (MIC), strain ECO+ 15-3 [3]: > 32 µg/mL
- Anti-bacterial activity (MIC), strain ECO+ 15-4 [3]: > 32 µg/mL
- Anti-bacterial activity (MIC), strain ECO− 15-1 [3]: > 32 µg/mL
- Anti-bacterial activity (MIC), strain ECO− 15-2 [3]: > 32 µg/mL
- Anti-bacterial activity (MIC), strain ECO− 15-3 [3]: > 32 µg/mL
- Anti-bacterial activity (MIC), strain ECO− 15-4 [3]: > 32 µg/mL
- Anti-bacterial activity (MIC), strain MRSA 15-1 [4]: > 32 µg/mL
- Anti-bacterial activity (MIC), strain MRSA 15-2 [4]: > 32 µg/mL
- Anti-bacterial activity (MIC), strain MRSA 15-3 [4]: > 32 µg/mL
- Anti-bacterial activity (MIC), strain MRSA 15-4 [4]: > 32 µg/mL
- Anti-bacterial activity (MIC) ([5]; strain BCA 14-1): 32 µg/mL
- Anti-bacterial activity (MIC) ([5]; strain BCA 14-4): 32 µg/mL
- Anti-bacterial activity (MIC) ([5]; strain BCA 14-5): 4 µg/mL
- Anti-bacterial activity (MIC) ([5]; strain BCA 14-6): 32 µg/mL
- Anti-bacterial activity (MIC) ([5]; strain BCA 14-7): 32 µg/mL
- Anti-bacterial activity (MIC) ([5]; strain BCA 14-8): 32 µg/mL
- Anti-bacterial activity (MIC) ([5]; strain BCA 14-10): 2 µg/mL
- Anti-bacterial activity (MIC) ([6]; strain EFM 15-1): > 32 µg/mL
- Anti-bacterial activity (MIC) ([6]; strain EFM 15-2): > 32 µg/mL
- Anti-bacterial activity (MIC) ([6]; strain EFM 15-3): > 32 µg/mL
- Anti-bacterial activity (MIC) ([6]; strain EFM 15-4): 32 µg/mL
- Anti-bacterial activity (MIC) ([6]; strain EFM 15-5): 4 µg/mL
- Anti-bacterial activity (MIC) ([6]; strain EFM 15-6): 4 µg/mL
- Anti-bacterial activity (MIC), strain MRSE 15-1 [7]: > 32 µg/mL
- Anti-bacterial activity (MIC), strain MRSE 15-2 [7]: > 32 µg/mL
- Anti-bacterial activity (MIC), strain MRSE 15-3 [7]: > 32 µg/mL
- Anti-bacterial activity (MIC), strain MRSE 15-7 [7]: > 32 µg/mL
- Anti-bacterial activity (MIC) ([8]; strain EFA 15-1): > 32 µg/mL
- Anti-bacterial activity (MIC) ([8]; strain EFA 15-2): > 32 µg/mL
- Anti-bacterial activity (MIC) ([8]; strain EFA 15-3): > 32 µg/mL
- Anti-bacterial activity (MIC) ([8]; strain EFA 15-4): > 32 µg/mL
- Anti-bacterial activity (MIC) ([8]; strain EFA 15-5): > 32 µg/mL
- Anti-bacterial activity (MIC) ([8]; strain EFA 15-6): > 32 µg/mL
- Anti-bacterial activity (MIC) ([8]; strain EFA 15-9): 32 µg/mL
- Anti-bacterial activity (MIC), strain MSSE 15-3 [9]: > 32 µg/mL
- Anti-bacterial activity (MIC), strain MSSE 15-4 [9]: > 32 µg/mL
- Anti-bacterial activity (MIC), strain MSSE 15-5 [9]: > 32 µg/mL
- Anti-bacterial activity (MIC), strain MSSE 15-6 [9]: > 32 µg/mL
- Anti-bacterial activity (MIC), strain MSSA 15-3 [10]: > 32 µg/mL
- Anti-bacterial activity (MIC), strain MSSA 15-4 [10]: > 32 µg/mL
- Anti-bacterial activity (MIC), strain MSSA 15-5 [10]: > 32 µg/mL
- Anti-bacterial activity (MIC), strain MSSA 15-6 [10]: > 32 µg/mL
